Source: patent publication US6632805B1, “Methods for using water-stabilized organosilanes” (Emory University, priority 1996, dated 2003)

Legend:
[1] = Solubility in water and other solvents
[2] = Stability in water judged by appearance of the preparation (clear/hazy)

CO[Si](CCCCl)(OC)OC [Chloropropyl trimethoxysilane]
Appearance after addition to water containing pentaerythritol ([1]; water containing pentaerythritol, after standing overnight): clear solution
Solubility in water ([1]; water, no stabilizer): insoluble

CCCCCCCCCCCCCCCCCC[N+](C)(C)CCC[Si](OC)(OC)OC.[Cl-] [none]
Stability (appearance of the preparation) ([2]; initial pH 1.15, after 1 wk.): hazy
Stability (appearance of the preparation) ([2]; initial pH 2.0, after 1 mo.): hazy
Stability (appearance of the preparation) ([2]; initial pH 2.0, after 1 wk.): clear
Stability (appearance of the preparation) ([2]; initial pH 5.7, after 1 mo.): hazy
Stability (appearance of the preparation) ([2]; initial pH 5.7, after 1 wk.): clear
Stability (appearance of the preparation) ([2]; initial pH 6.5, after 1 mo.): hazy
Stability (appearance of the preparation) ([2]; initial pH 6.5, after 1 wk.): clear
Stability (appearance of the preparation) ([2]; initial pH 8.5, after 1 wk.): hazy/gel
